Patent US9862713B2, “Substituted bicyclic heteroaryl compounds as RXR agonists” (CONNEXIOS LIFE SCIENCES PVT. LTD., priority 2014, dated 2018)

Tests used:
hRXR α, β, or γ = experiment: Transactivation assay (RARE-Luc dual luciferase reporter in HEK-293 cells), activity relative to LG268; format: cell-based, human; conditions: 24 h, luciferase activity expressed relative to LG268
Summary of the method: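 HEK-293 cells co-transfected with hRXR α, β or γ expression vector, RARE-firefly luciferase and renilla luciferase; 24 h later treated with agonist (100 nM, 300 nM, 1 uM) for 24 h. Firefly signal normalized to renilla; activity expressed relative to the RXR agonist LG268.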

DIO mice = experiment: Effect of RXR agonist on DIO mice (high fat diet); format: in vivo, male C57BL/6J mice
Method: Six week old male C57BL/6J mice were selected, acclimatized for a period of 1 week, Animals were assigned to either chow (10% kcal from fat) or high fat diet (HFD) (D12492; 60% kcal from fat), Research Diets, Inc., New Jersey, USA. Animals were housed in polypropylene cages and maintained at 23±1° C. at 60±10% humidity and 12 hour cycles of light and dark with free access to feed and water (ad libitum). After 11 weeks of the diet intervention, the HFD fed animals were assigned to specific treatment groups based upon body weight, glucose AUC during OGTT, fasting and fed blood glucose and fasting TG. The lean control mice (n=10) were fed with normal chow diet while the treatment group (n=10) and HFD Control (n=10) with high fat diet throughout the experimental period. Treatment group received Compound 40 at a dose of 5-20 mg/kg b.wt, once daily, po as suspension in 1% MC (methyl cellulose) as vehicle. Lean control and HFD controls animals were administered with vehicle.
Weekly body weight & daily feed consumption was recorded. The blood collected from tail vein was subjected for estimation of glucose and TG using Co-agucheck TG strip. OGTT was performed in 6 h fasted mice with 2 g/kg, of oral glucose challenge after 9 weeks of treatment.
Measurement of Thermogenesis: Body temperatures were assessed at the end of treatment period using a rectal probe. For the cold exposure experiment, mice were housed individually and transferred to a cold environment with an ambient temperature of 4° C. Temperature was measured every 15 min for 75 min and then brought to room temperature, then rectal temperature was measured for further 20 min with 10 min interval. After 10 weeks of treatment, blood was collected, from retro-orbital bleeding, for biochemical measurements. Then animals were euthanized and necropsied, the liver was excised immediately, weighed and taken to estimate liver triglyceride (TG). Different adipose depots were separated and weighed.
Animals were sacrificed after terminal measurement of fasting glycerol, free fatty acid, cholesterol, LDL levels.

ob/ob mice = experiment: Effect of RXR agonist on ob/ob mice; format: in vivo; conditions: 3, 10 and 30 mg/kg, BID, po; 4 weeks
Method: The male ob/ob and lean mice were procured from Harlon laboratories, acclimatized for a week, were fed a standard laboratory diet. The lean control and the ob/ob mice were 16 weeks old at the start of the study and were randomized to either vehicle or drug (Compound 40, 3, 10 and 30 mg/kg, BID, po) treatment groups by body weight, fed glucose and glucose AUC during an oral glucose tolerance test. The treatment was continued for 4 weeks. Fed glucose and fast triglycerides (tail snip) were monitored weekly. At the end of week 4 of the treatment, Animals were sacrificed […] terminal measurement of fasting glycerol, free fatty acid, cholesterol, LDL levels.

male ZDF rats = experiment: Effect of RXR agonist on male ZDF rats; format: in vivo; conditions: 10 mg/kg, BID, po
Method: Five week old male ZDF rats from Charles River & age matched control rats were housed under temperature 22±3° C., relative humidity 50-70%, 12 hour light and 12 hour dark cycle with artificial fluorescent tubes. The animals were housed in a group of 3 in standard polypropylene cages with stainless steel top grill having facilities for pelleted food and drinking water in bottle. The animals were fed with normal chow diet (Provomi), Bisleri, commercially available mineral drinking water was provided ad libitum. The lean control and the male […] rats were randomized to either vehicle or drug (Compound 40, 10 mg/kg, BID, po) treatment groups by body weight, fed glucose and glucose. The treatment was continued for 8 weeks. Body weight, fasting and fed glucose and fast triglycerides (tail snip) were monitored weekly. At the end of week 8 of the treatment, glucose and insulin HbAlc levels were followed at different time intervals. Blood samples collected from tail nipping method HbAlc levels by DCA vantage (SIEMENS).
Measurement of Nerve conduction velocity: Nerve conduction velocity was measured using Electronic stimulator connected to AD Power Lab 8/30, AD instruments. Briefly animals were anaesthetized and three different electrodes (+ve, −ve and neutral) were connected from Bio amp to animal. +ve electrode was placed on front side of fourth finger on hind paw, −ve electrode was placed just above +ve electrode at a distance of 10 mm and neutral electrode was placed on abdomen region. Voltage at a rate of 5 mv with pulse width of 0.001 sec was provided on two different regions at a distance of 1 cm on sciatic nerve. Nerve conduction was recorded using Lab chart software in scope view panel. Latencies at two different points were measured by taking the mouse cursor at the beginning of peaks. […] Measurement of Hemodynamic Parameters by Using Millar MPVS System:
At the end of 22 weeks of treatment period animal were subjected to hemodynamic measurement using Millar MPVS system, briefly animal was anesthetized using urethane and all surgical procedure was done on thermal plate, both jugular vein and carotid artery was cannulated in which jugular vein was used for saline calibration whereas rat millar Cather was introduced into left ventricle through carotid artery was be used for recording the Pressure volume loop. Blood was withdrawn from the tail vein puncture by pricking with needle into pre-filled EDTA tubes, mix and placed on ice immediately, centrifuge at 10000 rpm for 10 minutes using cold centrifuge. The plasma separated was subjected for estimation of ANP, BNP, Osteprotegerin Using USCN kit and Serum urea and BUN using Robonik kit.

[1] = 5-20 mg/kg b.wt, once daily, po
[2] = 5-20 mg/kg b.wt, once daily, po, 10 weeks
[3] = 5-20 mg/kg b.wt, once daily, po, OGTT after 9 weeks

In the case of `CC1(C)CCC(C)(C)c2sc(N(CC3CC3)c3ccc(C(=O)O)cn3)nc21` [Compound 40, 6-[(Cyclopropylmethyl) (4,4,7,7-tetramethyl-4,5,6,7-tetrahydro-1,3-benzothiazol-2-yl)amino]pyridine-3-carboxylic acid], the “Activity at 300 nM” value (hRXR α, β, or γ; compound at 300 nM) is reported as “***** (>0.6)”, the “Activity at 1 µM” value (hRXR α, β, or γ; compound at 1 µM) is reported as “**** (>0.9 to <1)” and the HOMA-IR (DIO mice; [1]) is reported as “improves HOMA-IR”. The “UCP1 expression levels in inguinal white adipose tissues” value (DIO mice; [1]) was “significantly enhances”, the “circulating free fatty acid levels” value (DIO mice; [1]) was “significant decrease” and the circulating glycerol levels (DIO mice; [1]) was “significant decrease”. For the same molecule, the ectopic fat accumulation (DIO mice; [1]) was “without increasing ectopic fat accumulation”, the “fasting TG” value (DIO mice; [1]) was “significantly reduces fasting TG” and the fed cholesterol levels (DIO mice; [1]) was “significantly reduces fed cholesterol levels”. The adipose depot weights (DIO mice; [2]) was “decrease in various adipose depot weights”, the body weight gain (DIO mice; [2]) was “significantly reduced body weight gain” and the “glucose disposal (OGTT)” value (DIO mice; [3]) was “improves glucose disposal”. For the same molecule, the “hyperinsulinemia (insulin levels)” value (DIO mice; [3]) was “significantly reduces hyperinsulinemia”, the non-shivering thermogenesis (DIO mice; cold exposure 4° C., rectal temperature) was “significantly enhances non-shivering thermogenesis” and the LDL-c (ob/ob mice) was “decreasing LDL-c”. The “prandial hyperglycemia (fed glucose)” value (ob/ob mice) was “both an early onset and sustained control of prandial hyperglycemia”, the total cholesterol (ob/ob mice) was “significantly decreased total cholesterol” and the CRP levels (male ZDF rats) was “decreasing CRP levels”. For the same molecule, the HbAlc levels (male ZDF rats) was “very significant improvement”, the “activity of SDH (glucose oxidation in muscle)” value (male ZDF rats) was “significantly increased the activity of SDH” and the “fasting TG levels” value (male ZDF rats) was “significantly reduces fasting TG levels”. The fasting glucose (male ZDF rats) was “significant control of Fasting glucose”, the glucose disposal (male ZDF rats) was “improves glucose disposal” and the “hyperinsulinemia (insulin levels)” value (male ZDF rats) was “significantly reduced hyperinsulinemia”. For the same molecule, the “levels of biomarkers of Cardio vascular risk” value (male ZDF rats) was “improvement in levels of biomarkers of Cardio vascular risk”, the “prandial hyperglycemia (fed glucose)” value (male ZDF rats) was “both an early onset and sustained control of prandial hyperglycemia” and the Cardiac function (male ZDF rats; Millar MPVS hemodynamic measurement) was “Substantial improvement”. For the same molecule, the BUN levels (male ZDF rats; end of 22 weeks) was “Substantial decrease”, the “Serum Creatinine levels” value (male ZDF rats; end of 22 weeks) was “Substantial decrease” and the hypertriglyceridemia (male ZDF rats; fasting TG during treatment and there after) was “does not cause hypertriglyceridemia”. For the same molecule, the “Nerve conduction velocity (NCV)” value (male ZDF rats; sciatic nerve) was “Significant improvement”.
